Measurements published in patent publication US9469650B2, “Melampomagnolide B derivatives” (BOARD OF TRUSTEES OF THE UNIVERSITY OF ARKANSAS, priority 2013, dated 2016).

What was measured:
SF-295 = assay: panel of 60 human tumor cell lines, growth inhibition (CNS Cancer); conditions: Homo sapiens
SNB-19 = assay: as above; conditions: Homo sapiens
U251 = assay: as above; conditions: Homo sapiens
HCC-2998 = assay: panel of 60 human tumor cell lines, growth inhibition (Colon Cancer); conditions: Homo sapiens
HT29 = assay: as above; conditions: for Percent Growth: HT29
786-0 = assay: panel of 60 human tumor cell lines, growth inhibition (Renal Cancer); conditions: Homo sapiens
ACHN = assay: as above; conditions: Homo sapiens
TK-10 = assay: as above; conditions: Homo sapiens; for GI50: TK-10, TK-10
HS 578T = assay: panel of 60 human tumor cell lines, growth inhibition (Breast Cancer); conditions: Homo sapiens, Hs-578T
BT-549 = assay: as above; conditions: Homo sapiens
IGROV1 = assay: panel of 60 human tumor cell lines, growth inhibition (Ovarian Cancer); conditions: Homo sapiens
SK-OV-3 = assay: as above; conditions: Homo sapiens
DU-145 = assay: panel of 60 human tumor cell lines, growth inhibition (Prostate Cancer); conditions: Homo sapiens
HOP-62 = assay: panel of 60 human tumor cell lines, growth inhibition (Non-Small Cell Lung Cancer); conditions: Homo sapiens
NCI-H226 = assay: as above; conditions: Homo sapiens
NCI-H23 = assay: as above; conditions: Homo sapiens
NCI-H460 = assay: as above; conditions: Homo sapiens
NCI-H522 = assay: as above; conditions: Homo sapiens

Compound: C=C1C(=O)O[C@H]2[C@H]1CC/C(COC(=O)Nc1n[nH]c(SC)n1)=C\CC[C@@]1(C)O[C@@H]21 [JVM 64, ((1aR,7aS,10aS,10bS,E)-1a-methyl-8-methylene-9-oxo-1a,2,3,6,7,7a,8,9,10a,10b-decahydrooxireno[2′,3′:9,10]cyclodeca[1,2-b]furan-5-yl)methyl-(5-(methylthio)-1H-1,2,4-triazol-3-yl)carbamate]
- GI50 (SF-295; SF-295): 14.1 µM
- CC50 (SF-295; SF-295, read-out: LC50): 64.1 µM
- IC (TGI) (SF-295; SF-295, read-out: TGI): 30.1 µM
- GI50 (SNB-19; SNB-19): 15.9 µM
- CC50 (SNB-19; SNB-19, read-out: LC50): > 100 µM
- IC (TGI) (SNB-19; SNB-19, read-out: TGI): 40 µM
- GI50 (U251; U-251): 3.62 µM
- CC50 (U251; U-251, read-out: LC50): 51 µM
- IC (TGI) (U251; U-251, read-out: TGI): 15.8 µM
- GI50 (HCC-2998; HCC 2998): 7.63 µM
- CC50 (HCC-2998; HCC 2998, read-out: LC50): 52.7 µM
- IC (TGI) (HCC-2998; HCC 2998, read-out: TGI): 21.5 µM
- Percent Growth (HT29; Log10 Concentration −4.0): −79%
- Percent Growth (HT29; Log10 Concentration −5.0): −11%
- Percent Growth (HT29; Log10 Concentration −6.0): 92%
- Percent Growth (HT29; Log10 Concentration −7.0): 101%
- Percent Growth (HT29; Log10 Concentration −8.0): 102%
- GI50 (HT29; Homo sapiens, HT-29): 2.55 µM
- CC50 (HT29; Homo sapiens, HT-29, read-out: LC50): 37.4 µM
- IC (TGI) (HT29; Homo sapiens, HT-29, read-out: TGI): 7.77 µM
- GI50 (786-0; 786-0): 1.66 µM
- CC50 (786-0; 786-0, read-out: LC50): 7.2 µM
- IC (TGI) (786-0; 786-0, read-out: TGI): 3.45 µM
- GI50 (ACHN): 1.75 µM
- CC50 (ACHN; read-out: LC50): 17.8 µM
- IC (TGI) (ACHN; read-out: TGI): 4.89 µM
- GI50 (TK-10; 5-dose assay): 2.51 µM
- GI50 (TK-10; NCI five dose): 2.51 µM
- CC50 (TK-10; TK-10, read-out: LC50): 27.4 µM
- IC (TGI) (TK-10; TK-10, read-out: TGI): 7.16 µM
- GI50 (HS 578T): 2.44 µM
- CC50 (HS 578T; read-out: LC50): > 100 µM
- IC (TGI) (HS 578T; read-out: TGI): 8.75 µM
- GI50 (BT-549; BT-549): 1.47 µM
- CC50 (BT-549; BT-549, read-out: LC50): 6.24 µM
- IC (TGI) (BT-549; BT-549, read-out: TGI): 3.83 µM
- GI50 (IGROV1; IGROV-1): 3.66 µM
- CC50 (IGROV1; IGROV-1, read-out: LC50): 57.8 µM
- IC (TGI) (IGROV1; IGROV-1, read-out: TGI): 14.2 µM
- GI50 (SK-OV-3; SK-OV-3): 11.7 µM
- CC50 (SK-OV-3; SK-OV-3, read-out: LC50): > 100 µM
- IC (TGI) (SK-OV-3; SK-OV-3, read-out: TGI): 35.8 µM
- GI50 (DU-145; DU-145): 3.49 µM
- CC50 (DU-145; DU-145, read-out: LC50): 38.4 µM
- IC (TGI) (DU-145; DU-145, read-out: TGI): 13.1 µM
- GI50 (HOP-62; HOP-62): 6.45 µM
- CC50 (HOP-62; HOP-62, read-out: LC50): 64.9 µM
- IC (TGI) (HOP-62; HOP-62, read-out: TGI): 22.3 µM
- GI50 (NCI-H226; NCI-H226): 10.2 µM
- CC50 (NCI-H226; NCI-H226, read-out: LC50): 99.7 µM
- IC (TGI) (NCI-H226; NCI-H226, read-out: TGI): 31.9 µM
- GI50 (NCI-H23; NCI-H23): 3.21 µM
- CC50 (NCI-H23; NCI-H23, read-out: LC50): 63.6 µM
- IC (TGI) (NCI-H23; NCI-H23, read-out: TGI): 14.1 µM
- GI50 (NCI-H460; NCI-H460): 4.03 µM
- CC50 (NCI-H460; NCI-H460, read-out: LC50): > 100 µM
- IC (TGI) (NCI-H460; NCI-H460, read-out: TGI): 18.9 µM
- GI50 (NCI-H522; NCI-H522): 1.26 µM
- CC50 (NCI-H522; NCI-H522, read-out: LC50): 7.87 µM
- IC (TGI) (NCI-H522; NCI-H522, read-out: TGI): 3.17 µM
